Data as given in patent US20230024652A1, “PHARMACEUTICAL COMPOSITION COMPRISING SMALL OCTOPUS-DERIVED PEPTIDE FOR TREATMENT OF INFLAMMATORY DISEASE” (NATIONAL MARINE BIODIVERSITY INSTITUTE OF KOREA, priority 2020, published 2023).
Where a SMILES comes first, the peptide text is derived from it.

Test system: RAW 264.7 macrophages
Assay: MTT cell viability / cytotoxicity and cyto-protection
Assay type: cell-based
Settings: 62.5 to 500 μg/mL
Procedure: As macrophages, RAW 264.7 cells (American Type Culture Collection; ATCCUSA) were cultured in DMEM (Gibco/BRL, Canada) supplemented with 10% heat inactivated FBS and 1% antibiotics in 37° C. at 100% humidity under 5% CO2. […] After 24 hours, culture medium containing 3-(4,5-dimethylthiazol-2-yl)-2,5-diphenyltetrazolium bromide (MTT) (0.1 mg/mL) was added to each well. After 1 hour, culture medium was removed, and formazan crystals were dissolved in dimethyl sulfoxide (DMSO) and measured at 550 nm using a microplate reader. The concentration of NO in the culture medium was determined by Griess reagent (Abekura et al. Int Immunopharmacol 68:156, 2019). The cell viability of the control group untreated with Octominin was designated as 100%, which indicates no cytotoxicity

## CC[C@H](C)[C@H](NC(=O)[C@H](C)NC(=O)[C@H](CCCCN)NC(=O)CNC(=O)[C@H](C)NC(=O)[C@H](Cc1c[nH]cn1)NC(=O)[C@@H](NC(=O)[C@H](C)NC(=O)CNC(=O)[C@H](CCCNC(=N)N)NC(=O)[C@@H](NC(=O)[C@H](CC(C)C)NC(=O)[C@H](Cc1c[nH]c2ccccc12)NC(=O)CN)[C@@H](C)CC)[C@@H](C)CC)C(=O)N[C@@H](Cc1c[nH]cn1)C(=O)NCC(=O)N[C@@H](CC(C)C)C(=O)N[C@H](C(=O)N[C@@H](Cc1c[nH]cn1)C(=O)N[C@@H](CCCNC(=N)N)C(=O)N[C@@H](CCCNC(=N)N)C(=O)N[C@@H](CCCNC(=N)N)C(=O)N[C@@H](Cc1c[nH]cn1)C(=O)O)[C@@H](C)CC [Octominin] (H-GWLIRGAIHAGKAIHGLIHRRRH-OH)
  toxicity to macrophages: non-toxic
RAW 264.7 macrophages without LPS, compared with control group
  cell viability reduction (cytotoxicity, MTT): did not show any significant cell viability reduction
